Measured values taken from patent US8471005B2 (Cephalon, Inc., priority 2008, dated 2013).
pIC50: −log10 of the molar value. Where two headings read alike, the source gives them in different places.

Tests used:
[1] = molecular target: T1, ALK (Homo sapiens, UniProt Q9UM73); experiment: ALK Kinase Assay (ELISA/TRF, PLC-γ substrate); format: biochemical; conditions: read-out: ALK Potency
T1 construct: host or cells: baculovirus expression system
In short: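 PLC-γ coat 10 μg/mL in TBS; ALK 30 ng/ml added to start; 37° C, 15 min; Eu-N1 PT66 antibody detection (TRF). IC50: % inhibition vs log10 [cpd], variable-slope sigmoidal fit.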

[2] = molecular target: T2, JAK2 (Homo sapiens, UniProt O60674); experiment: Recombinant Human JAK2 Kinase Assay (TRF); format: biochemical; conditions: read-out: JAK2 Potency
T2 construct: host or cells: baculovirus expression system
In short: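 Baculovirus-expressed JAK2 (15 ng/ml) phosphorylated a biotinylated 15-mer peptide captured on Neutravidin-coated plates, in 20 mM HEPES pH 7.2 with 0.2 μM ATP, 1 mM MnCl2, 0.1% BSA and 2.5% DMSO. Reaction ran 20 min at room temperature; phosphopeptide was detected by time-resolved fluorescence with Eu-N1-labelled PY100 antibody.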

[3] = ALK kinase inhibition, 1 μM ATP
[4] = JAK2 kinase inhibition, 0.2 μM ATP

T2 sequence (O60674 whole entry): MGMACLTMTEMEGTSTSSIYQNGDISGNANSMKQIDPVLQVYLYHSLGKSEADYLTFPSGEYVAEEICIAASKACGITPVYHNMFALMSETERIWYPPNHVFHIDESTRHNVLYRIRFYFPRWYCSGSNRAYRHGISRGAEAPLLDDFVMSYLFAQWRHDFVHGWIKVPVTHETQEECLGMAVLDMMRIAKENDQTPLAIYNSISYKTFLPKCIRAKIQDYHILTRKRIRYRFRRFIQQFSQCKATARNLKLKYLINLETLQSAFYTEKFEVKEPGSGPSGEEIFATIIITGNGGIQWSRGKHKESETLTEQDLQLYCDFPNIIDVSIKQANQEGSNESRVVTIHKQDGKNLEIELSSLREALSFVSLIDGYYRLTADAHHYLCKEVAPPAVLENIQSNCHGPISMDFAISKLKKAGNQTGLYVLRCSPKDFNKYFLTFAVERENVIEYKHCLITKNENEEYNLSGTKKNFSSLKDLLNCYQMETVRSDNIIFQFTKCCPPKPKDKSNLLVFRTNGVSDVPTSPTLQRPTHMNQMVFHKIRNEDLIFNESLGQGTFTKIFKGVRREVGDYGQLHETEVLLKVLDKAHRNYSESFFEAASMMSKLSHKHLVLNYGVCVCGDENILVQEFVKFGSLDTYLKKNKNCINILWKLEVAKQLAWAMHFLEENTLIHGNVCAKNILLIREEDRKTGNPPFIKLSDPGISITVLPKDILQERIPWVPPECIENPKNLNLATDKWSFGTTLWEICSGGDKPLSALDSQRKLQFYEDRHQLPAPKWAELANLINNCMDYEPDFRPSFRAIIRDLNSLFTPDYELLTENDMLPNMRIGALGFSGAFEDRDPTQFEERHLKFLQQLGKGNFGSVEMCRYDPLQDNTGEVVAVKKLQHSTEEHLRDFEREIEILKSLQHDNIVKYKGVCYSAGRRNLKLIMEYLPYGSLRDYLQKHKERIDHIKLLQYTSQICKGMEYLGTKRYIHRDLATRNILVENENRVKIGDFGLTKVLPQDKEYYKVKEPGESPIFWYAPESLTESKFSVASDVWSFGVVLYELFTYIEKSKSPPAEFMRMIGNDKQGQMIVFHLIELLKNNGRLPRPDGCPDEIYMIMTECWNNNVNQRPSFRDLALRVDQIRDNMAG
T1 sequence (Q9UM73 19-1620): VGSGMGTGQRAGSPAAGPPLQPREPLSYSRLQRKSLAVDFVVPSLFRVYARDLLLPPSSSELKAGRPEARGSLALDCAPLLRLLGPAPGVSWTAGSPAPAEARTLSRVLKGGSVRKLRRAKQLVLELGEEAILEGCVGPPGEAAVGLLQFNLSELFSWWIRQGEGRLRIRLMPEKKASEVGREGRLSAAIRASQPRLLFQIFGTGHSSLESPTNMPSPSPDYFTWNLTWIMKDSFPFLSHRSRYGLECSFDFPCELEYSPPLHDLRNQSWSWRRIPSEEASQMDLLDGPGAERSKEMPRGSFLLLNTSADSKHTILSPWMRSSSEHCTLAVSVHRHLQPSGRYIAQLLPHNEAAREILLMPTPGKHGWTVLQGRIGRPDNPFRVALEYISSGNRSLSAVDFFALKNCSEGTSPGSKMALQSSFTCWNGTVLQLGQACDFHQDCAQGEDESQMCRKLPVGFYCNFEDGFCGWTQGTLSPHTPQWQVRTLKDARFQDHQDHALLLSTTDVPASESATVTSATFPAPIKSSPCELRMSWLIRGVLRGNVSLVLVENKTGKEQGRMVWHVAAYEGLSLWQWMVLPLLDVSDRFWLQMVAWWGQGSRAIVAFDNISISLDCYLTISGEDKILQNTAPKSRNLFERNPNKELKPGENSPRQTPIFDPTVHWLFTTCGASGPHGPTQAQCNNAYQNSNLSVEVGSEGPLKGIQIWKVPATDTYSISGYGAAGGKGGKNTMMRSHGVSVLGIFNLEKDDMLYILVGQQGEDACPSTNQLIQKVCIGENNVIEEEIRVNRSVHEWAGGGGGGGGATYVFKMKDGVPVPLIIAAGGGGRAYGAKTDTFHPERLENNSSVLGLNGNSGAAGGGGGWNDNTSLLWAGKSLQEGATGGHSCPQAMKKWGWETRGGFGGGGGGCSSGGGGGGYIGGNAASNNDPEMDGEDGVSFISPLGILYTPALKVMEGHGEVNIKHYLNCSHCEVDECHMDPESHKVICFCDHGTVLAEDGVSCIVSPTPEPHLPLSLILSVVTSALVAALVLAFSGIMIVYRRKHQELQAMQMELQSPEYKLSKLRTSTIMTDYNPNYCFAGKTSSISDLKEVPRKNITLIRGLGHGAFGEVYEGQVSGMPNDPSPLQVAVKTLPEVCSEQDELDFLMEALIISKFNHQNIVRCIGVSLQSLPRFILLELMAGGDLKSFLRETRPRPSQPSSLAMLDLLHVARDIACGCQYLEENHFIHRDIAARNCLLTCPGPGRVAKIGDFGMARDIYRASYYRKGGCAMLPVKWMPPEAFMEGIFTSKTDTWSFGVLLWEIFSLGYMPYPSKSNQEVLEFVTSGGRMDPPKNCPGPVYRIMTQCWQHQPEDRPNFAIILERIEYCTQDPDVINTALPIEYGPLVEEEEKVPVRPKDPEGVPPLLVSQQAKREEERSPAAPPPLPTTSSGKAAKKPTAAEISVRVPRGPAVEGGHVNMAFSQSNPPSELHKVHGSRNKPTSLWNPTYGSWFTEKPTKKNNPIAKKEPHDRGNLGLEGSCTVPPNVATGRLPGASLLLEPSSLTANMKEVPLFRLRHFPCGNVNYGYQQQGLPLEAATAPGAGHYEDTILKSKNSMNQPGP

Row | Structure (SMILES) | pIC50 [1, 3] | pIC50 [2, 4] | pIC50 ([1]; ALK Kinase Inhibition) | pIC50 ([2]; JAK2 Kinase Inhibition)
1 | COc1cc2c(cc1Nc1ncc3ccc(-c4ccccc4OC)n3n1)CN(C(=O)OC(C)(C)C)C2 [Example 874, 5-Methoxy-6-[7-(2-methoxy-phenyl)-pyrrolo[2,1-f][1,2,4]triazin-2-ylamino]-1,3-dihydro-isoindole-2-carboxylic acid tert-butyl ester] | 5.00 to 6.00 | 5.00 to 6.00 | – | –
2 | COc1cccc(-c2ccc3cnc(Nc4ccc(N5CCOCC5)cc4)nn23)c1 [Example 422, [7-(3-Methoxy-phenyl)-pyrrolo[2,1-f][1,2,4]triazin-2-yl]-(4-morpholin-4-yl-phenyl)-amine] | – | – | < 5.00 | > 7.00
3 | COc1cc(Nc2ncc3ccc(-c4cccc(S(C)(=O)=O)c4)n3n2)cc(OC)c1OC [Example 185, [7-(3-Methanesulfonyl-phenyl)-pyrrolo[2,1-f][1,2,4]triazin-2-yl]-(3,4,5-trimethoxy-phenyl)-amine] | – | – | 6.00 to 7.00 | > 7.00
4 | C[C@@H](O)CN1CCN(c2ccc(Nc3ncc4ccc(-c5ccc(S(C)(=O)=O)cc5)n4n3)cc2)CC1 [Example 209, (R)-1-(4-{4-[7-(4-Methanesulfonyl-phenyl)-pyrrolo[2,1-f][1,2,4]triazin-2-ylamino]-phenyl}-piperazin-1-yl)-propan-2-ol] | – | – | 6.00 to 7.00 | > 7.00
5 | CN1CCN(c2ccc(Nc3ncc4ccc(-c5cccc(C(=O)N6CCCC6)c5)n4n3)cc2)CC1 [Example 21, (3-{2-[4-(4-Methyl-piperazin-1-yl)-phenylamino]-pyrrolo[2,1-f][1,2,4]triazin-7-yl}-phenyl)-pyrrolidin-1-yl-methanone] | – | – | 6.00 to 7.00 | > 7.00
6 | COc1cc(Nc2ncc3ccc(-c4cc(Cl)ccc4OC)n3n2)cc(OC)c1 [Example 157, [7-(5-Chloro-2-methoxy-phenyl)-pyrrolo[2,1-f][1,2,4]triazin-2-yl]-(3,5-dimethoxy-phenyl)-amine] | – | – | 6.00 to 7.00 | > 7.00
7 | CCN1CCC(O)(c2ccc(Nc3ncc4ccc(-c5ccccc5N(C)S(C)(=O)=O)n4n3)c(OC)c2)CC1 [Example 743, N-(2-{2-[4-(1-Ethyl-4-hydroxy-piperidin-4-yl)-2-methoxy-phenylamino]-pyrrolo[2,1-f][1,2,4]triazin-7-yl}-phenyl)-N-methyl-methanesulfonamide] | > 7.00 | 5.00 to 6.00 | – | –
8 | COc1cc2c(cc1Nc1ncc3ccc(-c4ccccc4OC)n3n1)CN(C(C)C)C2 [Example 877, (2-Isopropyl-6-methoxy-2,3-dihydro-1H-isoindol-5-yl)-[7-(2-methoxy-phenyl)-pyrrolo[2,1-f][1,2,4]triazin-2-yl]-amine] | > 7.00 | > 7.00 | – | –
9 | CN(c1cccc(-c2ccc3cnc(Nc4ccc(C5CCN(CCO)CC5)cc4)nn23)c1)S(C)(=O)=O [Example 961, N-[3-(2-{4-[1-(2-Hydroxy-ethyl)-piperidin-4-yl]-phenylamino}-pyrrolo[2,1-f][1,2,4]triazin-7-yl)-phenyl]-N-methyl-methanesulfonamide] | 6.00 to 7.00 | > 7.00 | – | –
10 | c1cc(N2CCOCC2)ccc1Nc1ncc2ccc(C3CCCCC3)n2n1 [Example 127, (7-Cyclohexyl-pyrrolo[2,1-f][1,2,4]triazin-2-yl)-(4-morpholin-4-yl-phenyl)-amine] | – | – | < 5.00 | > 7.00
11 | COc1cc(N2CCC(N3CCN(C)CC3)CC2)ccc1Nc1ncc2ccc(-c3ccccc3S(=O)(=O)N(C)C)n2n1 [Example 532, 2-(2-{2-Methoxy-4-[4-(4-methyl-piperazin-1-yl)-piperidin-1-yl]-phenylamino}-pyrrolo[2,1-f][1,2,4]triazin-7-yl)-N,N-dimethyl-benzenesulfonamide] | > 7.00 | 5.00 to 6.00 | – | –
12 | COc1ccccc1-c1ccc2cnc(Nc3cnn(C4CCNCC4)c3)nn12 [Example 716, 4-{4-[7-(2-Methoxy-phenyl)-pyrrolo[2,1-f][1,2,4]triazin-2-ylamino]-pyrazol-1-yl}-piperidine] | > 7.00 | > 7.00 | – | –
13 | COc1cc(C2CCNCC2)ccc1Nc1ncc2ccc(-c3ccccc3OC)n2n1 [Example 820, [7-(2-Methoxy-phenyl)-pyrrolo[2,1-f][1,2,4]triazin-2-yl]-(2-methoxy-4-piperidin-4-yl-phenyl)-amine] | > 7.00 | 6.00 to 7.00 | – | –

Further lines, results first:

Row | pIC50 [1, 3] | pIC50 [2, 4] | pIC50 ([1]; ALK Kinase Inhibition) | pIC50 ([2]; JAK2 Kinase Inhibition) | Structure (SMILES)
14 | 5.00 to 6.00 | > 7.00 | – | – | O=S(=O)(c1cccc(-c2ccc3cnc(Nc4ccc(-c5cccnc5)cc4)nn23)c1)N1CCOCC1 [Example 1090, {7-[3-(Morpholine-4-sulfonyl)-phenyl]-pyrrolo[2,1-f][1,2,4]triazin-2-yl}-(4-pyridin-3-yl-phenyl)-amine]
15 | > 7.00 | > 7.00 | – | – | COc1cccc(F)c1-c1ccc2cnc(Nc3ccc(C4CCN(CC(N)=O)CC4)cc3)nn12 [Example 1353, 2-(4-{4-[7-(2-Fluoro-6-methoxy-phenyl)-pyrrolo[2,1-f][1,2,4]triazin-2-ylamino]-phenyl}-piperidin-1-yl)-acetamide]
16 | – | – | 6.00 to 7.00 | > 7.00 | NC(=O)CN1CCC(c2ccc(Nc3ncc4ccc(-c5cccc6c5OC(F)(F)O6)n4n3)cc2)CC1 [Example 1540, 2-(4-{4-[7-(2,2-Difluoro-benzo[1,3]dioxol-4-yl)-pyrrolo[2,1-f][1,2,4]triazin-2-ylamino]-phenyl}-piperidin-1-yl)-acetamide]
17 | 6.00 to 7.00 | > 7.00 | – | – | Cc1cc(-c2ccc3cnc(Nc4ccc(N5CCN(C)CC5)cc4)nn23)cnc1F [Example 1046, [7-(6-Fluoro-5-methyl-pyridin-3-yl)-pyrrolo[2,1-f][1,2,4]triazin-2-yl]-[4-(4-methyl-piperazin-1-yl)-phenyl]-amine]
18 | > 7.00 | 6.00 to 7.00 | – | – | COc1cc(CN2CCN(C(=O)CN)CC2)ccc1Nc1ncc2ccc(-c3ccccc3OC)n2n1 [Example 1244, 2-Amino-1-(4-{3-methoxy-4-[7-(2-methoxy-phenyl)-pyrrolo[2,1-f][1,2,4]triazin-2-ylamino]-benzyl}-piperazin-1-yl)-ethanone]
19 | > 7.00 | > 7.00 | – | – | CC(C)(C)NS(=O)(=O)c1cccc(-c2ccc3cnc(Nc4ccc(C5CCNCC5O)cc4)nn23)c1 (centres unmarked) [Example 1014, N-tert-Butyl-3-{2-[4-(3-hydroxy-piperidin-4-yl)-phenylamino]-pyrrolo[2,1-f][1,2,4]triazin-7-yl}-benzenesulfonamide]
20 | < 5.00 | 6.00 to 7.00 | – | – | CN1CCN(c2cccc(Nc3ncc4ccc(NCc5ccncc5)n4n3)c2)CC1 [Example 1167, N(2)-[3-(4-Methyl-piperazin-1-yl)-phenyl]-N(7)-pyridin-4-ylmethyl-pyrrolo[2,1-f][1,2,4]triazine-2,7-diamine]
21 | 6.00 to 7.00 | > 7.00 | – | – | CN1CCN(c2ccc(Nc3ncc4ccc(-c5cccc(N6CCNCC6)c5)n4n3)cc2)CC1 [Example 1169, [4-(4-Methyl-piperazin-1-yl)-phenyl]-[7-(3-piperazin-1-yl-phenyl)-pyrrolo[2,1-f][1,2,4]triazin-2-yl]-amine]
22 | – | – | > 7.00 | 6.00 to 7.00 | COc1ccc(OC)c(-c2ccc3cnc(Nc4ccc(N5CCC(N6CCOCC6)CC5)cc4OC)nn23)c1 [Example 1476, [7-(2,5-Dimethoxy-phenyl)-pyrrolo[2,1-f][1,2,4]triazin-2-yl]-[2-methoxy-4-(4-morpholin-4-yl-piperidin-1-yl)-phenyl]-amine]
